Source: PubChem BioAssay AID248 (DTP/NCI, 2004)
“And” between values parts separate entries of the source, which are not always exact repeats. Identical values can stand only once. Toxic doses and inconclusive results are not listed. Cut-off read from the data, not from the text of the source: active = T/C of 150% or more; inactive = T/C below 125%.

Test system: L1210 leukemia ip in BDF1 mice, survival T/C
Assay: NCI In Vivo Anticancer Drug Screen. Data for tumor model L1210 Leukemia (intraperitoneal) in B6D2F1 (BDF1) mice
Settings: endpoint: mean survival time, higher = longer survival
How it was run: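 Tumor was transplanted into mice, which were then dosed with test compound or vehicle alone. Survival was recorded for each group, and the treated figure was expressed relative to the control figure.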

[1] = dose: 100.0 mg/kg/injection, schedule: Q04DX002 (ip), vehicle: Klucel (hydroxypropylcellulose) (HPC)
[2] = dose: 100.0 mg/kg/injection, schedule: Q04DX003 (ip), vehicle: saline
[3] = dose: 200.0 mg/kg/injection, schedule: Q04DX003 (ip), vehicle: saline
[4] = dose: 400.0 mg/kg/injection, schedule: Q04DX003 (ip), vehicle: saline
[5] = dose: 25.0 mg/kg/injection, schedule: Q04DX003 (ip), vehicle: saline with Tween-80
[6] = dose: 50.0 mg/kg/injection, schedule: Q04DX003 (ip), vehicle: saline with Tween-80
[7] = dose: 100.0 mg/kg/injection, schedule: Q04DX003 (ip), vehicle: saline with Tween-80
[8] = dose: 100.0 mg/kg/injection, schedule: Q01DX001 (ip), vehicle: saline
[9] = dose: 200.0 mg/kg/injection, schedule: Q01DX001 (ip), vehicle: saline
[10] = dose: 400.0 mg/kg/injection, schedule: Q01DX001 (ip), vehicle: saline
[11] = dose: 50.0 mg/kg/injection, schedule: Q01DX009 (ip), vehicle: saline with Tween-80
[12] = dose: 100.0 mg/kg/injection, schedule: Q01DX009 (ip), vehicle: saline with Tween-80
[13] = dose: 200.0 mg/kg/injection, schedule: Q01DX009 (ip), vehicle: saline with Tween-80
[14] = dose: 400.0 mg/kg/injection, schedule: Q04DX003 (ip), vehicle: saline with Tween-80
[15] = dose: 200.0 mg/kg/injection, schedule: Q04DX003 (ip), vehicle: saline with Tween-80

Measured: T/C

COc1ccc(CCOC(C)=O)cc1OC
inactive: [1] 102 % of control | dose: 200.0 mg/kg/injection, schedule: Q04DX002 (ip), vehicle: Klucel (hydroxypropylcellulose) (HPC) 97 % of control | dose: 400.0 mg/kg/injection, schedule: Q04DX002 (ip), vehicle: Klucel (hydroxypropylcellulose) (HPC) 97 % of control

CC(C)(C)C(=O)N/N=C\c1ccc([N+](=O)[O-])s1
inactive: [2] 93 % of control | [3] 87 % of control | [4] 94 % of control

O=C1NCN(c2ccccc2)C12CCNCC2
inactive: dose: 25.0 mg/kg/injection, schedule: Q01DX009 (ip), vehicle: saline sonified 108 % of control | [5] 89 % of control | dose: 50.0 mg/kg/injection, schedule: Q01DX009 (ip), vehicle: saline sonified 98 % of control | [6] 94 % of control | dose: 100.0 mg/kg/injection, schedule: Q01DX009 (ip), vehicle: saline sonified 103 % of control | dose: 100.0 mg/kg/injection, schedule: Q04DX003 (ip), vehicle: saline sonified 95 % of control | [7] 89 % of control

N/C(=N\N=C\c1cccc2ccccc12)N/N=C/c1cccc2ccccc12
inactive: dose: 15.0 mg/kg/injection, schedule: Q01DX Z (ip), vehicle: methylcellulose (MC) 101 % of control | dose: 30.0 mg/kg/injection, schedule: Q01DX Z (ip), vehicle: methylcellulose (MC) 89 % of control | dose: 60.0 mg/kg/injection, schedule: Q01DX Z (ip), vehicle: methylcellulose (MC) 102 % of control | dose: 60.0 mg/kg/injection, schedule: Q01DX Z (oral), vehicle: methylcellulose (MC) 87 % of control | dose: 120.0 mg/kg/injection, schedule: Q01DX Z (ip), vehicle: methylcellulose (MC) 97 % of control | dose: 120.0 mg/kg/injection, schedule: Q01DX Z (oral), vehicle: methylcellulose (MC) 110 % of control | dose: 180.0 mg/kg/injection, schedule: Q01DX Z (oral), vehicle: methylcellulose (MC) 101 % of control | dose: 240.0 mg/kg/injection, schedule: Q01DX Z (ip), vehicle: methylcellulose (MC) 97 % of control | dose: 240.0 mg/kg/injection, schedule: Q01DX Z (oral), vehicle: methylcellulose (MC) 102 % of control | dose: 360.0 mg/kg/injection, schedule: Q01DX Z (ip), vehicle: methylcellulose (MC) 91 % of control | dose: 360.0 mg/kg/injection, schedule: Q01DX Z (oral), vehicle: methylcellulose (MC) 96 % of control | dose: 480.0 mg/kg/injection, schedule: Q01DX Z (oral), vehicle: methylcellulose (MC) 93 % of control | dose: 540.0 mg/kg/injection, schedule: Q01DX Z (oral), vehicle: methylcellulose (MC) 96 % of control

C#CC1=CCCC1
inactive: [8] 95 % of control | [9] 100 % of control | [10] 95 % of control

C=CCSc1nc(N)nc2nc[nH]c12
inactive: [11] 122 % of control | [12] 123 % of control | [13] 124 % of control

CC(=O)OCC1OC(n2cc(C)c(=O)[nH]c2=O)C(NC(=O)C(Cl)(Cl)Cl)C(OC(C)=O)C1OC(C)=O (stereo unspecified)
inactive: dose: 50.0 mg/kg/injection, schedule: Q01DX001 (ip), vehicle: carboxymethylcellulose (CMC) 105 % of control | dose: 100.0 mg/kg/injection, schedule: Q01DX001 (ip), vehicle: carboxymethylcellulose (CMC) 96 % of control | dose: 200.0 mg/kg/injection, schedule: Q01DX001 (ip), vehicle: carboxymethylcellulose (CMC) 100 % of control | dose: 400.0 mg/kg/injection, schedule: Q01DX001 (ip), vehicle: carboxymethylcellulose (CMC) 103 % of control

Nc1ncnc(N)c1NC(=O)c1ccc([N+](=O)[O-])cc1
inactive: dose: 25.0 mg/kg/injection, schedule: Q01DX001 (ip), vehicle: Klucel (hydroxypropylcellulose) (HPC) 93 % of control | dose: 50.0 mg/kg/injection, schedule: Q01DX001 (ip), vehicle: Klucel (hydroxypropylcellulose) (HPC) 89 % of control | dose: 100.0 mg/kg/injection, schedule: Q01DX001 (ip), vehicle: Klucel (hydroxypropylcellulose) (HPC) 102 % of control

C=CCN(CC=C)c1ccc(N(CC)CC)cc1
inactive: dose: 100.0 mg/kg/injection, schedule: Q01DX009 (ip), vehicle: Klucel (hydroxypropylcellulose) (HPC) 86 % of control | [2] 97 % of control | dose: 200.0 mg/kg/injection, schedule: Q01DX009 (ip), vehicle: Klucel (hydroxypropylcellulose) (HPC) 86 % of control | [3] 105 % of control | [4] 105 % of control

CCCCCCCCCCCCCCCCCC(=O)N/N=C/c1cc(C(C)(C)C)c(O)c(C(C)(C)C)c1
inactive: dose: 100.0 mg/kg/injection, schedule: Q01DX009 (ip), vehicle: other 90 % of control | dose: 200.0 mg/kg/injection, schedule: Q01DX009 (ip), vehicle: other 88 % of control | dose: 400.0 mg/kg/injection, schedule: Q01DX009 (ip), vehicle: other 96 % of control

COCCCCO
inactive: [11] 97 % of control | [12] 97 % of control | [13] 90 % of control

NC1=NC(c2ccc(Cl)cc2)N(c2ccc(S(N)(=O)=O)cc2)C(N)=N1 (stereo unspecified)
inactive: dose: 75.0 mg/kg/injection, schedule: Q01DX001 (ip), vehicle: saline 102 % of control | dose: 150.0 mg/kg/injection, schedule: Q01DX001 (ip), vehicle: saline 96 % of control

O=[N+]([O-])c1ccc(OCc2ccccc2)c(Cl)c1
inactive: [5] 102 % of control | [6] 96 % of control | [7] 98 % of control and 105 % of control

N/N=C(\N)c1ccc(NC(=O)c2ccc(C(=O)Nc3ccc(/C(N)=N/N)cc3)cc2)cc1
inactive: dose: 15.0 mg/kg/injection, schedule: Q01DX Z (ip), vehicle: saline 104 % of control | dose: 30.0 mg/kg/injection, schedule: Q01DX Z (ip), vehicle: saline 100 % of control | dose: 60.0 mg/kg/injection, schedule: Q01DX Z (ip), vehicle: saline 103 % of control | dose: 120.0 mg/kg/injection, schedule: Q01DX Z (ip), vehicle: saline 97 % of control

CNc1nc2c(N)ncnc2n1C1OC(CO)C(O)C1O (stereo unspecified)
inactive: dose: 12.5 mg/kg/injection, schedule: Q04DX002 (ip), vehicle: saline 100 % of control | dose: 25.0 mg/kg/injection, schedule: Q04DX002 (ip), vehicle: saline 103 % of control | dose: 25.0 mg/kg/injection, schedule: Q04DX002 (ip), vehicle: suspension in saline 104 % of control | dose: 50.0 mg/kg/injection, schedule: Q01DX001 (ip), vehicle: saline 104 % of control | dose: 50.0 mg/kg/injection, schedule: Q04DX002 (ip), vehicle: saline 113 % of control | dose: 50.0 mg/kg/injection, schedule: Q04DX002 (ip), vehicle: suspension in saline 106 % of control | [8] 110 % of control | dose: 100.0 mg/kg/injection, schedule: Q04DX002 (ip), vehicle: suspension in saline 106 % of control

N=C(N)SCc1ccc(Cl)cc1N
inactive: dose: 25.0 mg/kg/injection, schedule: Q04DX002 (ip), vehicle: Klucel (hydroxypropylcellulose) (HPC) 97 % of control | dose: 50.0 mg/kg/injection, schedule: Q04DX002 (ip), vehicle: Klucel (hydroxypropylcellulose) (HPC) 102 % of control | [1] 103 % of control

COc1ccc(OC)c(NC(=O)Nc2ccc([As](=O)(O)O)cc2)c1
inactive: dose: 50.0 mg/kg/injection, schedule: Q04DX003 (ip), vehicle: Klucel (hydroxypropylcellulose) (HPC) 96 % of control | dose: 100.0 mg/kg/injection, schedule: Q04DX003 (ip), vehicle: Klucel (hydroxypropylcellulose) (HPC) 100 % of control | dose: 200.0 mg/kg/injection, schedule: Q04DX003 (ip), vehicle: Klucel (hydroxypropylcellulose) (HPC) 93 % of control and 88 % of control

CCCCN(Cl)C(C)=O
inactive: [8] 96 % of control | [9] 100 % of control | [10] 96 % of control

C(=N\Nc1ccccc1)/c1cccc[n+]1Cc1ccccc1
inactive: dose: 75.0 mg/kg/injection, schedule: Q01DX001 (ip), vehicle: other 95 % of control | dose: 150.0 mg/kg/injection, schedule: Q01DX001 (ip), vehicle: other 96 % of control

CN(C)/C(=C\C(=O)c1ccccc1)c1ccccc1
inactive: [7] 90 % of control | [14] 86 % of control

CN(C)C=C1C(=O)c2ccccc2C1=O
inactive: [7] 105 % of control | [15] 107 % of control

CNS(=O)(=O)c1ccccc1C(=O)c1ccccc1
inactive: [8] 100 % of control | [9] 97 % of control | [10] 103 % of control

CCCCC(CC)CCC(O)CC (stereo unspecified)
inactive: [12] 98 % of control | [7] 98 % of control | [13] 101 % of control | [15] 95 % of control | dose: 400.0 mg/kg/injection, schedule: Q01DX009 (ip), vehicle: saline with Tween-80 97 % of control | [14] 98 % of control
